Source: patent EP0745595A1, “3-(3-Aryloxyphenyl)-1-(substituted methyl)-s-triazine-2,4,6-oxo or thiotrione herbicidal agents” (American Cyanamid Company, priority 1995, dated 1996)

What was measured:
Assay type in all cases: in vivo
[1] = tested on: CYPERUS SEROTINUS, ROTTB.; assay: Preemergence weed control under flooded paddy conditions, CYPSE (Flatsedge); conditions: 0.500 kg/ha, preemergence, 3-4 weeks after treatment
In short: (§1)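 Seeds or propagules sown in top 0.5 cm of silt loam in undrained containers, flooded 1.5 to 3 cm throughout. Compounds in aqueous/acetone 50/50 v/v pipetted into flood water at about 0.5, 0.25, 0.125 and 0.063 kg/ha. Visual 0-9 rating versus control after three to four weeks in greenhouse.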

[2] = tested on: ORYZA SATIVA, L. TEBONNET; assay: Preemergence herbicidal evaluation, ORYSAT (Rice, Tebonnet); conditions: rated four to five weeks after treatment
Description: (§2) Results of herbicide evaluation are expressed on a rating scale (0-9). The scale is based upon a visual observation of plant stand, vigor, malformation, size, chlorosis and overall plant appearance as compared with a control.
(§3) The preemergence herbicidal activity of the test compounds of the present invention is exemplified by the following tests in which the seeds of a variety of monocotyledonous and dicotyledonous plants are separately mixed with potting soil and planted on top of approximately one inch of soil in separate pint cups. […] The treated cups are then placed on greenhouse benches, watered and cared for in accordance with conventional greenhouse procedures. From four to five weeks after treatment, the tests are terminated and each cup is examined and rated according to the rating system provided in Example 40.
(§4) The compounds evaluated are reported by compound number given in Example 40.

[3] = tested on: ABUTILON THEOPHRASTI, MEDIC.; assay: Postemergence herbicidal evaluation, ABUTH (Velvetleaf)
In short: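 Velvetleaf (Abutilon theophrasti) seedlings were raised in jiffy flats for about two weeks and then sprayed postemergence. The test compound was dispersed in a 50/50 acetone/water mixture containing 0.5% TWEEN®20 and applied through a nozzle operating at 40 psi. Plants were kept on greenhouse benches and rated 0-9 four to five weeks after treatment.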

CASSIA OBTUSIFOLIA, L. [4] = assay: Postemergence herbicidal evaluation, CASOB (Sicklepod); parameters: key to CASOB rating / Herbicidal effect rating, CASOB / CASOB: 0-9 visual rating scale vs untreated control
In short: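 Seedlings about two weeks old were sprayed with compound in 50/50 acetone/water containing 0.5% Tween 20 at about 0.125-0.500 kg/ha and kept in the greenhouse. Visual injury was rated on a 0-9 scale versus control 4-5 weeks after treatment; repeat tests were averaged.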

[5] = tested on: ECHINOCHLOA CRUS-GALLI, (L) BEAU; assay: Postemergence herbicidal evaluation, ECHCG (Barnyardgrass); parameters: key to ECHCG rating / Herbicidal effect rating, ECHCG / ECHCG: 0-9 visual rating scale vs untreated control
In short: (§5)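 Visual 0–9 scores reflect stand, vigor, malformation, size, chlorosis and overall appearance relative to control, taken 4–5 weeks after spraying two-week-old seedlings with about 0.125–0.500 kg/ha compound in acetone/water/TWEEN 20.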

ZEA MAYS L. = assay: Preemergence herbicidal evaluation, ZEAMX (Corn, Field); conditions: rated four to five weeks after treatment
In short: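 Corn (Zea mays) seeds were mixed with potting soil and planted on about one inch of soil in pint cups, then treated preemergence. Cups were kept on greenhouse benches, watered and maintained conventionally, and after four to five weeks were visually rated on a 0-9 scale versus an untreated control.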

[6] = tested on: ECHINOCHLOA ORYZOIDES (ARD.)FRITSCH; assay: Preemergence weed control under flooded paddy conditions, ECHORC (Watergrass (Calif.)); conditions: 0.500 kg/ha, preemergence, 3-4 weeks after treatment
In short: as §1

GALIUM APARINE = assay: Postemergence herbicidal evaluation, GALAP (Galium); parameters: key to GALAP rating / Herbicidal effect rating, GALAP / GALAP: 0-9 visual rating scale vs untreated control
In short: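 Galium (GALAP) seedlings were raised in jiffy flats for about two weeks, then sprayed with test compounds dispersed in 50/50 acetone/water containing 0.5% TWEEN®20, delivered through a nozzle at 40 psi. Plants were kept on greenhouse benches and visually rated 0-9 against a control four to five weeks later; repeat tests were averaged.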

CYPERUS IRIA = assay: Preemergence weed control under flooded paddy conditions, CYPIR (Rice Flatsedge); conditions: 0.500 kg/ha, preemergence, 3-4 weeks after treatment
In short: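 Seeds or propagating organs of rice flatsedge were planted in the top 0.5 cm of silt loam soil in 32 oz. plastic containers, 10.5 cm across and without drainage holes. Water was kept 1.5 to 3 cm above the soil throughout. Treated containers were kept on greenhouse benches, and herbicidal effect was visually rated on a 0-9 scale against a control.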

IPOMOEA SPP. = assay: Postemergence herbicidal evaluation, IPOSS (Morningglory spp.)
In short: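 Seedlings of morningglory (Ipomoea spp.) were raised in jiffy flats for roughly two weeks. They were then sprayed postemergence through a nozzle at 40 psi with test compound dispersed in 50/50 acetone/water containing 0.5% TWEEN®20 surfactant. Plants were kept on greenhouse benches under standard care and visually rated 0-9 against controls four to five weeks after treatment.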

[7] = tested on: GLYCINE MAX(L) MERR. CV. WILLIAMS; assay: Preemergence herbicidal evaluation, GLXMAW (Soybean, Williams); conditions: rated four to five weeks after treatment
Description: as §2, §3, §4

[…], PRESL. = Preemergence weed control under flooded paddy conditions, MOOVA (Monochoria); conditions: 0.500 kg/ha, preemergence, 3-4 weeks after treatment
In short: as §1

[8] = tested on: AMBROSIA ARTEMISIIFOLIA, L.; assay: Postemergence herbicidal evaluation, AMBEL (Ragweed, Common)
In short: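 Common ragweed (Ambrosia artemisiifolia) seedlings were raised in jiffy flats for roughly two weeks, then sprayed postemergence through a nozzle at 40 psi with the test compound dispersed in 50/50 acetone/water carrying 0.5% TWEEN®20. The plants were kept on greenhouse benches under conventional care. Four to five weeks later, injury was rated visually on a 0-9 scale, and repeat tests were averaged.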

SAGITTARIA PYGMAEA, L. = assay: Preemergence weed control under flooded paddy conditions, SAGPY (Arrowhead (Pygmaea)); conditions: 0.500 kg/ha, preemergence, 3-4 weeks after treatment
In short: as §1

[9] = tested on: SETARIA VIRIDIS, (L) BEAU; assay: Postemergence herbicidal evaluation, SETVI (Foxtail, Green); parameters: key to SETVI rating / Herbicidal effect rating, SETVI / SETVI: 0-9 visual rating scale vs untreated control
In short: as §5

[10] = tested on: ORYZA SATIVA, L. TEBONNET; assay: Rice tolerance to post-transplant applications under flooded paddy conditions, ORYSAT (Rice, Tebonnet); conditions: post-transplant rice, 3-4 weeks after treatment
In short: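 Two ten-day-old Tebonnet rice seedlings were transplanted into silt loam and kept flooded 1.5 to 3 cm deep. Three days after transplanting, the flood surface received the compound in aqueous/acetone 50/50 v/v at about 0.5, 0.25, 0.125 or 0.063 kg/ha. Injury was rated visually on a 0-9 scale versus control after 3-4 weeks.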

[11] = tested on: TRITICUM AESTIVUM, CV. APOLLO; assay: Preemergence herbicidal evaluation, TRZAWO (Wheat, Winter, CV. APOLLO); conditions: rated four to five weeks after treatment
Description: as §2, §3, §4

CASSIA OBTUSIFOLIA, L. [12] = assay: Preemergence herbicidal evaluation, CASOB (Sicklepod); conditions: Rate 0.500 kg/ha, rated four to five weeks after treatment
In short: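 Seeds of various monocot and dicot plants, including sicklepod, were each mixed with potting soil and sown on roughly one inch of soil in separate pint cups for preemergence testing. Treated cups were kept on greenhouse benches, watered and maintained conventionally. Four to five weeks after treatment, each cup was visually rated on a 0-9 scale against a control.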

CHENOPODIUM ALBUM, L. [13] = assay: Postemergence herbicidal evaluation, CHEAL (Lambsquarters, Common)
In short: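 Seedlings of common lambsquarters (Chenopodium album) were raised in jiffy flats for roughly two weeks, then sprayed postemergence through a nozzle at 40 psi with test compound dispersed in 50/50 acetone/water containing 0.5% TWEEN®20 surfactant. Plants were kept on greenhouse benches under standard care and rated visually on a 0-9 scale versus controls.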

[14] = tested on: AMBROSIA ARTEMISIIFOLIA, L.; assay: Preemergence herbicidal evaluation, AMBEL (Ragweed, Common); conditions: rated four to five weeks after treatment
Description: as §2, §3, §4

CHENOPODIUM ALBUM, L. [15] = assay: Preemergence herbicidal evaluation, CHEAL (Lambsquarters, Common); conditions: rated four to five weeks after treatment
In short: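 Seeds sown in potting soil cups, then sprayed preemergence with aqueous acetone compound solution at about 0.125 to 0.50 kg per hectare. Greenhouse-grown, rated 4–5 weeks after treatment on a 0–9 visual scale against control.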

Compound	ORYSAT herbicidal rating ([2]; Rate 0.125 kg/ha)	ORYSAT herbicidal rating ([2]; Rate 0.250 kg/ha)	ORYSAT herbicidal rating ([2]; Rate 0.500 kg/ha)	CASOB rating (CASSIA OBTUSIFOLIA, L. [4]; Rate 0.125 kg/ha)	CASOB rating (CASSIA OBTUSIFOLIA, L. [4]; Rate 0.250 kg/ha)	CASOB rating (CASSIA OBTUSIFOLIA, L. [4]; Rate 0.500 kg/ha)	ZEAMX herbicidal rating (ZEA MAYS L.; Rate 0.125 kg/ha)	ZEAMX herbicidal rating (ZEA MAYS L.; Rate 0.250 kg/ha)	ZEAMX herbicidal rating (ZEA MAYS L.; Rate 0.500 kg/ha)	IPOSS rating (IPOMOEA SPP.; Rate 0.125 kg/ha)	IPOSS rating (IPOMOEA SPP.; Rate 0.250 kg/ha)	IPOSS rating (IPOMOEA SPP.; Rate 0.500 kg/ha)	GLXMAW herbicidal rating ([7]; Rate 0.125 kg/ha)	GLXMAW herbicidal rating ([7]; Rate 0.250 kg/ha)	GLXMAW herbicidal rating ([7]; Rate 0.500 kg/ha)	SETVI rating ([9]; Rate 0.125 kg/ha)	SETVI rating ([9]; Rate 0.250 kg/ha)	SETVI rating ([9]; Rate 0.500 kg/ha)	Herbicidal effect rating, ORYSAT ([10]; 0.500 kg/ha)	further results
COC(=O)Cn1c(=O)n(C)c(=O)n(-c2cc(Oc3ccc(C#N)cc3)ccc2[N+](=O)[O-])c1=O [Compound 32, Methyl 3-[5-(p-cyanophenoxy)-2-nitrophenyl]-tetrahydro-5-methyl-2,4,6-trioxo-s-triazine-1(2H)-acetate]	2.0	2.0	2.0	0.0	0.0	0.0	0.0	0.0	0.0	0.0	0.0	0.0	0.0	0.0	0.0	0.0	0.0	0.0	0.0	Herbicidal effect rating, CYPSE [1]: 0.0; ABUTH rating ([3]; Rate 0.125 kg/ha): 0.0; ABUTH rating ([3]; Rate 0.250 kg/ha): 0.0; ABUTH rating ([3]; Rate 0.500 kg/ha): 0.0; ECHCG rating ([5]; Rate 0.125 kg/ha): 0.0; ECHCG rating ([5]; Rate 0.250 kg/ha): 0.0; ECHCG rating ([5]; Rate 0.500 kg/ha): 0.0; Herbicidal effect rating, ECHORC [6]: 0.0; GALAP rating (GALIUM APARINE; Rate 0.125 kg/ha): 0.0; GALAP rating (GALIUM APARINE; Rate 0.250 kg/ha): 0.0; GALAP rating (GALIUM APARINE; Rate 0.500 kg/ha): 0.0; Herbicidal effect rating, CYPIR (CYPERUS IRIA): 0.0; Herbicidal effect rating, MOOVA ([…], PRESL.): 0.0; AMBEL rating ([8]; Rate 0.125 kg/ha): 0.0; AMBEL rating ([8]; Rate 0.250 kg/ha): 0.0; AMBEL rating ([8]; Rate 0.500 kg/ha): 0.0; Herbicidal effect rating, SAGPY (SAGITTARIA PYGMAEA, L.): 0.0
CC(C)OC(=O)Cn1c(=O)n(C)c(=O)n(-c2cc(Oc3ncc(C(F)(F)F)cc3Cl)ccc2Br)c1=O [Compound 44]	0.0	0.0	0.0	9.0	9.0	9.0	0.0	0.0	0.0	9.0	9.0	9.0	0.0	0.0	0.0	9.0	9.0	9.0	3.0	TRZAWO herbicidal rating ([11]; Rate 0.125 kg/ha): 0.0; TRZAWO herbicidal rating ([11]; Rate 0.250 kg/ha): 0.0; TRZAWO herbicidal rating ([11]; Rate 0.500 kg/ha): 0.0; CASOB herbicidal rating (CASSIA OBTUSIFOLIA, L. [12]): 0.0; CHEAL rating (CHENOPODIUM ALBUM, L. [13]; Rate 0.125 kg/ha): 9.0; CHEAL rating (CHENOPODIUM ALBUM, L. [13]; Rate 0.250 kg/ha): 9.0; CHEAL rating (CHENOPODIUM ALBUM, L. [13]; Rate 0.500 kg/ha): 9.0; AMBEL herbicidal rating ([14]; Rate 0.125 kg/ha): 0.0; AMBEL herbicidal rating ([14]; Rate 0.250 kg/ha): 0.0; AMBEL herbicidal rating ([14]; Rate 0.500 kg/ha): 0.0; CHEAL herbicidal rating (CHENOPODIUM ALBUM, L. [15]; Rate 0.125 kg/ha): 9.0; CHEAL herbicidal rating (CHENOPODIUM ALBUM, L. [15]; Rate 0.250 kg/ha): 9.0; CHEAL herbicidal rating (CHENOPODIUM ALBUM, L. [15]; Rate 0.500 kg/ha): 9.0; Herbicidal effect rating, ORYSAT ([10]; 0.063 kg/ha): 1.0; Herbicidal effect rating, ORYSAT ([10]; 0.125 kg/ha): 1.0; Herbicidal effect rating, ORYSAT ([10]; 0.250 kg/ha): 2.0
